Laboratory results taken from patent EP0333004A2, “Light sensitive diazonium compounds, process for their preparation and their use” (priority 1988, dated 1989).

Experiments:
[1] = Differential thermal analysis (DTA), violence of decomposition; assay type: physicochemical; settings: characterises the violence of decomposition
Explosion hazard = assay type: physicochemical
[2] = Combustion number (Brennziffer, BZ), safety characteristic; assay type: physicochemical; settings: solid isolated diazonium salt form
Solubility in water = assay type: physicochemical; settings: 20 °C
[3] = Dust explosion class (ST), safety characteristic; assay type: physicochemical; settings: solid isolated diazonium salt form
Impact sensitivity = assay type: physicochemical
[4] = Onset of exothermic decomposition (EZ); assay type: physicochemical; settings: for Exotherme Zer-setzung (EZ): temperature at which exothermic decomposition begins
[5] = species and route not given; cited from earlier work

Compound	Differential-thermoanalyse (DTA) [1] [kJ/kg]	explosions-gefährlich (Explosion hazard)	Brenn-ziffer (BZ) [2]	Löslichkeit in Wasser (Solubility in water)	Staubexplo-sionsklasse (ST) [3]	schlagemp-findlich (Impact sensitivity)	exotherme Zersetzung, höher als bei dem entsprechenden Zinkchlorid-Doppelsalz ([4]; difference to the corresponding zinc chloride double salt) [°C]	Exotherme Zer-setzung (EZ) [4] [°C]	solubility (Solubility in water; read-out: Löslichkeit in Wasser) [µg/mL]	LD₅₀-Wert (LD - Letale Dosis) [5] [mg/kg]
4-N,N-Dimethylaminobenzoldiazonium-sulfosalicylat [Sulfosalicylat R1=R2=CH3 R3 = H]	-490	nein	3	10,4 g/l	1	nein	40	140	–	–
4-N,N-Dimethylaminobenzoldiazoniumchlorzinkat [ZnCl2 stabilisiert R1=R2=CH3 R3 = H, reference compound]	-720	nein	3	–	0	nein	–	100	–	–
CN(C)c1ccc([N+]#N)cc1 [4-N,N-Dimethylaminobenzoldiazonium-sulfoisophthalat, reference compound]	–	–	–	–	–	–	–	–	3800	–
Cc1cc([N+]#N)ccc1N1CCCC1 [Sulfosalicylat R1,R2=(CH2)4 R3 = CH3, 3-Methyl-4-N-pyrrolidinobenzoldiazonium-sulfosalicylat]	-400	nein	3	–	1	nein	–	120	–	–
O=C(O)c1cc(S(=O)(=O)O)ccc1O [Sulfosalicylsäure]	–	–	–	–	–	–	–	–	–	2450
